# Where a SMILES comes first, the peptide text is derived from it. [ ]: non-standard residue; d: D form. The star is where a group is joined. Pro(3S,4R-methano) = O=C(O)[C@H]1NC[C@@H]2C[C@@H]21; pY = N[C@@H](Cc1ccc(OP(=O)(O)O)cc1)C(=O)O; Hydrocinnamoyl = O=C(CCc1ccccc1)*; NHBn = c1ccc(CN*)cc1
# What was measured:
# [1] = target: T1, Signal transducer and activator of transcription 3 (Mus musculus, UniProt P42227); assay: Inhibition of STAT3 dimerization in v-Src transformed mouse NIH/3T3 cells overexpressing human EGFR assessed as suppression of STAT3-DNA interaction in nucleus after 30 mins by EMSA; assay type: cell-based, NIH3T3
# T1 sequence (P42227 whole entry): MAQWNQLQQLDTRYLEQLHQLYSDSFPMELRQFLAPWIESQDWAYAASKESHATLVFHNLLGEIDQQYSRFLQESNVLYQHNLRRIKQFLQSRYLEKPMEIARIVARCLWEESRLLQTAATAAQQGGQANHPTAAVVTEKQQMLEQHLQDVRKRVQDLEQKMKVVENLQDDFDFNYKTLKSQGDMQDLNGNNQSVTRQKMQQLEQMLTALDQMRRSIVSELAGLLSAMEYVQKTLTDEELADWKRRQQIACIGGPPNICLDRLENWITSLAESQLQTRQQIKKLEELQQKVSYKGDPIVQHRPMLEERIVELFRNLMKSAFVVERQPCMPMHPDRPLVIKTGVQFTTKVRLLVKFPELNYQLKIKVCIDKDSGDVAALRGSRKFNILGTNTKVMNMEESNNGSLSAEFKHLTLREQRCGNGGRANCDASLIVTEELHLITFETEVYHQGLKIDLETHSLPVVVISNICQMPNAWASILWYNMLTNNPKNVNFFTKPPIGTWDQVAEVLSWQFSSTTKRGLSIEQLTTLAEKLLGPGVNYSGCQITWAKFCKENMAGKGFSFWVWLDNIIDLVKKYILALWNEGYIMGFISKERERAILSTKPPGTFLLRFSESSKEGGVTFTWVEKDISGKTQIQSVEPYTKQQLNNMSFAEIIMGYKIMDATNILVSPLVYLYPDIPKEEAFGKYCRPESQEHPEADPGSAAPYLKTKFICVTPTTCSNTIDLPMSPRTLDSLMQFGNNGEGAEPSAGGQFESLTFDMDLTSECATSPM
# [2] = tested on: SNU-398; assay: Cytotoxicity against human SNU398 cells with impaired TGFbeta pathway assessed as growth inhibition at 250 uM after 72 hrs by MTT assay; assay type: functional; details: SNU-398, 72 h, read-out: GI
# [3] = tested on: SNU-449; assay: Cytotoxicity against human SNU449 cells with intact TGFbeta pathway assessed as growth inhibition at 250 uM after 72 hrs by MTT assay; assay type: functional; details: SNU-449, 72 h, read-out: GI
# [4] = tested on: SNU-475; assay: Cytotoxicity against human SNU475 cells with impaired TGFbeta pathway assessed as growth inhibition at 250 uM after 72 hrs by MTT assay; assay type: functional; details: SNU-475, 72 h, read-out: GI
# [5] = tested on: HepG2; assay: Cytotoxicity against human HepG2 cells with intact TGFbeta pathway assessed as growth inhibition at 250 uM after 72 hrs by MTT assay; assay type: functional; details: HepG2, 72 h, read-out: GI
# [6] = Cytotoxicity against human SNU182 cells with impaired TGFbeta pathway assessed as growth inhibition at 250 uM after 72 hrs by MTT assay; assay type: functional, cell-based; details: SNU-182
# [7] = Cytotoxicity against human PLC/PRF/5 cells with intact TGFbeta pathway assessed as growth inhibition at 250 uM after 72 hrs by MTT assay; assay type: functional, cell-based
# [8] = tested on: Huh-7; assay: Cytotoxicity against human HuH7 cells with impaired TGFbeta pathway assessed as growth inhibition at 250 uM after 72 hrs by MTT assay; assay type: functional; details: Huh-7, 72 h, read-out: GI
# [9] = target: T2, Signal transducer and activator of transcription 3 (Homo sapiens, UniProt P40763); assay: Inhibition of STAT3 SH2 domain using 5-carboxyfluorescein-GY(PO3H2)LPQTV-NH2 as substrate preincubated for 60 mins prior to substrate addition by fluorescence polarization assay
# T2 sequence (P40763 whole entry, the tested form may be a part): as the sequence (P42227 whole entry) above, with D760E counted along it
# [10] = target: T2, Signal transducer and activator of transcription 3; assay: Inhibition of IL6-mediated STAT3 phosphorylation in human HepG2 cells preincubated for 1 hr prior to IL6 challenge measured after 30 mins by immunoblot analysis; assay type: cell-based
# [11] = target: T2, Signal transducer and activator of transcription 3; assay: Inhibition of recombinant STAT3 assessed as inhibition of STAT3-phosphododecapeptide interaction by SPR analysis
# [12] = target: Tyrosine-protein kinase JAK2 (Homo sapiens) (UniProt O60674); details: at 5 µM
# Tyrosine-protein kinase JAK2 (Homo sapiens), sequence (O60674 whole entry): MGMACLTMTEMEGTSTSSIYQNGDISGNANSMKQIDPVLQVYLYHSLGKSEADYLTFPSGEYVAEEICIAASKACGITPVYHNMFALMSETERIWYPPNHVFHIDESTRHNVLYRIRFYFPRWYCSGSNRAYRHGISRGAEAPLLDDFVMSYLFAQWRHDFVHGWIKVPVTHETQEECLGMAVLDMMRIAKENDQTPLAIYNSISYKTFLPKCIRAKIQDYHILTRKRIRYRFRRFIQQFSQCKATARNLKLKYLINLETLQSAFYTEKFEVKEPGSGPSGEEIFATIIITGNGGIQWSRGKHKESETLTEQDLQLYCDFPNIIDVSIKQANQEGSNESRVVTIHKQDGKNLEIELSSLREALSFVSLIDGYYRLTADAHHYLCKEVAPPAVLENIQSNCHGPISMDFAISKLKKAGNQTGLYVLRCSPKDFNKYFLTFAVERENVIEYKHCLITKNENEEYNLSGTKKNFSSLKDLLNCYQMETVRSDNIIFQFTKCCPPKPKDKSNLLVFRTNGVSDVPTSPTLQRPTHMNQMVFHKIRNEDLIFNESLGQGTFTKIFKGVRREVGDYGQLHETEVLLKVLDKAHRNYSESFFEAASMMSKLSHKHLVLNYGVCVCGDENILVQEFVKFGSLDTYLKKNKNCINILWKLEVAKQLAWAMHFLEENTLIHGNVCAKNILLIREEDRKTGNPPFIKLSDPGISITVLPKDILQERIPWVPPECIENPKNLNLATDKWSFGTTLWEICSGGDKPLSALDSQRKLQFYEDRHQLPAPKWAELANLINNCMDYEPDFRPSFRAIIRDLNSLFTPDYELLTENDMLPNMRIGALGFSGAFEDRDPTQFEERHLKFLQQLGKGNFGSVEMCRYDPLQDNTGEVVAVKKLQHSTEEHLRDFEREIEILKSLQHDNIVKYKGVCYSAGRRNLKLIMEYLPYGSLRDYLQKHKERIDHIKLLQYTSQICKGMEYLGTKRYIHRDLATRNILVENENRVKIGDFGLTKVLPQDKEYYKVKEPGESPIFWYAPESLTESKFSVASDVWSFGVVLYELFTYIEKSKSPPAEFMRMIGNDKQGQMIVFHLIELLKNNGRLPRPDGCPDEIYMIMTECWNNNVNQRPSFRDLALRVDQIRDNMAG
# Description: Inhibition of JAK2 at 5 uM by high throughput assay
# [13] = tested on: MDA-MB-231; assay: Cytotoxicity against human MDA-MB-231 cells harboring constitutively active STAT3 after 24 to 144 hrs by trypan blue-staining based phase contrast microscopy; assay type: functional, cell-based
# [14] = target: T1, Signal transducer and activator of transcription 3; assay: Binding affinity to STAT3 SH2 in v-Src transformed mouse NIH/3T3 cells overexpressing human EGFR; assay type: cell-based, NIH3T3
# [15] = tested on: PANC-1; assay: Cytotoxicity against human PANC1 cells harboring constitutively active STAT3 after 24 to 144 hrs by trypan blue-staining based phase contrast microscopy; assay type: functional, cell-based
# [16] = target: T3, Signal transducer and activator of transcription 1-alpha/beta (Homo sapiens, UniProt P42224); assay: Inhibition of STAT1 SH2 domain by fluorescence polarization assay
# T3 sequence (P42224 whole entry): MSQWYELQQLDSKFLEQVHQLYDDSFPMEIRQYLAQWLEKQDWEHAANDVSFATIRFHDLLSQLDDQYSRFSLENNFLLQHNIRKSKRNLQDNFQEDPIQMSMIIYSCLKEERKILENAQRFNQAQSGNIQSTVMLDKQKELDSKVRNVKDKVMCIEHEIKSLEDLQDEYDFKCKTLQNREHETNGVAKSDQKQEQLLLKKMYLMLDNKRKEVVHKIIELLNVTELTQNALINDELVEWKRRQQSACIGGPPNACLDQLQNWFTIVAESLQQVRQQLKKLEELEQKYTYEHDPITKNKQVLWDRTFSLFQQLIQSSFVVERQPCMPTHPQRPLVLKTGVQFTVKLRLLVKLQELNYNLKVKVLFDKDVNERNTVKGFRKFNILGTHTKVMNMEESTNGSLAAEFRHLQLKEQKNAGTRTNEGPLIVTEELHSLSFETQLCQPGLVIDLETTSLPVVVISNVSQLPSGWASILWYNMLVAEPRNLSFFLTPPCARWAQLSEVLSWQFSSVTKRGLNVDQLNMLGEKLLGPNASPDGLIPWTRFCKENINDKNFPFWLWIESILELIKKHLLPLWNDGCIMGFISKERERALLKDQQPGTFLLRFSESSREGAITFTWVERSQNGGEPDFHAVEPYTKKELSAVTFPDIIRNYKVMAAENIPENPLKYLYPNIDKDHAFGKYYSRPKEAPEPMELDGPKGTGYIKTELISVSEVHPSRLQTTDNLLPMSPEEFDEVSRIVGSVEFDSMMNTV
# [17] = tested on: NIH3T3; assay: Cytotoxicity against mouse NIH/3T3 cells without constitutively active STAT3 after 24 to 144 hrs by trypan blue-staining based phase contrast microscopy; assay type: cell-based
# [18] = Cytotoxicity against mouse TE71 without constitutively active STAT3 after 24 to 144 hrs by trypan blue-staining based phase contrast microscopy
# [19] = Cytotoxicity against HPDEC without constitutively active STAT3 after 24 to 144 hrs by trypan blue-staining based phase contrast microscopy; details: Homo sapiens
# [20] = target: T2, Signal transducer and activator of transcription 3; assay: Inhibition of STAT3 SH2 domain assessed as inhibition of STAT3 SH2-phosphotyrosine interaction by AlphaScreen assay
# [21] = target: T3, Signal transducer and activator of transcription 1-alpha/beta; assay: Inhibition of STAT1 SH2 domain assessed as inhibition of STAT1 SH2-phosphotyrosine interaction by AlphaScreen assay
# [22] = target: T2, Signal transducer and activator of transcription 3; assay: Inhibition of STAT3 in human MDA-MB-435 cells at 20 uM after 48 hrs by luciferase reporter gene assay relative to untreated control; assay type: cell-based
# [23] = target: T2, Signal transducer and activator of transcription 3; assay: Inhibition of STAT3 SH2 domain assessed as inhibition of STAT3 SH2-phosphotyrosine interaction after 15 mins by fluorescence polarization assay
# [24] = target: T2, Signal transducer and activator of transcription 3; assay: Inhibition of STAT3 expressed in human U3A cells after 1 hr by luciferase reporter gene assay; assay type: cell-based
# [25] = Binding affinity to full length STAT3alpha by fluorescence polarization assay
smiles,measurement,setting,value
COc1cccc(NC(=O)c2nc(-c3ccccc3)oc2Cc2ccc(OP(=O)(O)O)cc2)c1,IC50,[1],90 µM
Cc1ccc(S(=O)(=O)OCC(=O)Nc2ccc(C(=O)O)c(O)c2)cc1,inhibition of growth at 250 µM,[2],80%
same,inhibition of growth at 250 µM,[3],20%
same,inhibition of growth at 250 µM,[4],80%
same,inhibition of growth at 250 µM,[5],20%
same,growth inhibition (GI),[6],80%
same,growth inhibition (GI),[7],20%
same,inhibition of growth at 250 µM,[8],80%
O=[N+]([O-])c1ccc2c(c1)S(=O)(=O)C=C2,IC50,[9],5.1 µM
CCCCCCNC(=O)c1nc(-c2cccc3ccccc23)sc1Cc1ccc(OP(=O)(O)O)cc1,IC50,[1],25 µM
O=C(O)c1ccc(/C=C/C(=O)c2ccc3c(c2)OCCO3)cc1,IC50,[10],91 µM
same,IC50,[11],447 µM
COc1ccc(/C=C/C(=O)C(C)(C)C(=O)/C=C/c2ccc(OC)c(OC)c2)cc1OC,inhibition,[12],60%
Cc1ccc(S(=O)(=O)N(C)CC(=O)N(Cc2ccc(C3CCCCC3)cc2)c2ccc(C(=O)O)c(O)c2)cc1,IC50,[13],37 µM
same,Kd,[14],2.74 µM
same,IC50,[15],48 µM
same,Ki,[16],≥ 50 µM
same,IC50,[17],> 200 µM
same,IC50,[18],> 200 µM
same,IC50,[19],> 200 µM
C1=Cc2nc1cc1ccc([nH]1)c(-c1ccccc1)c1nc(cc3ccc([nH]3)c2-c2ccccc2)C=C1,IC50,[20],0.28 µM
same,IC50,[21],10 µM
CCCCCCNC(=O)c1nc(-c2cccc3ccccc23)oc1Cc1ccc(OP(=O)(O)O)cc1,IC50,[1],58 µM
C[C@@H]1CC(=O)c2c(ccc3c2C(=O)c2cccc(O)c2C3=O)C1,fold change (FC),[22],5
Cc1ccc(S(=O)(=O)N(C)CC(=O)N(Cc2ccc(C3CCN(c4ccc(C#N)cc4)CC3)cc2)c2ccc(C(=O)O)c(O)c2)cc1,Ki,[23],18.7 µM
O=C(N/N=C/c1ccc([N+](=O)[O-])o1)c1ccc(O)cc1 [NIFUROXAZIDE],EC50,[24],3 µM
"CC(C)C[C@H](NC(=O)[C@H](Cc1ccc(OP(=O)(O)O)cc1)NC(=O)CCc1ccccc1)C(=O)N1C[C@@H]2C[C@@H]2[C@H]1C(=O)N[C@@H](CCC(N)=O)C(=O)NCc1ccccc1 (Hydrocinnamoyl-[pY]L[Pro(3S,4R-methano)]Q-NHBn)",Ki,[25],0.125 µM
O=C(Nc1ccc(C2CCCCC2)cc1)c1nc(-c2ccccc2)oc1Cc1ccc(OP(=O)(O)O)cc1,IC50,[1],33 µM
Cc1ccc(S(=O)(=O)OCC(=O)N(Cc2ccc(C3CCCCC3)cc2)c2ccc(C(=O)O)c(O)c2)cc1,Ki,[23],50 µM
COc1cccc(NC(=O)c2nc(-c3ccccc3)sc2Cc2ccc(OP(=O)(O)O)cc2)c1,IC50,[1],28 µM

# — ChEMBL document CHEMBL2169778, “Small molecule inhibitors of signal transducer and activator of transcription 3 (Stat3) protein” (J Med Chem, 2012)
